Source: US4182897A, “Amino- or guanidino-phenylpropionic acid derivatives” (Torii & Co., Ltd., priority 1977, dated 1980)

How the values were obtained:
Human Plasma Kallikrein = Human Plasma Kallikrein (Homo sapiens, UniProt P03952); assay: Inhibitory effect on ester-hydrolyzing activity of human plasma kallikrein (TAMe substrate); assay type: biochemical; conditions: read-out: percent inhibition at 10^-3 M (kallikrein)
Description: (A) Determination of Enzyme-inhibitory Activity: The enzyme-inhibitory activities in vitro of the compounds of this invention were measured by the following procedure according to the method of M. Muramatsu et al. [[…]. Makino, Y. Hayashi and S. Fujii: J.

[1] = system: collagen induced platelet aggregation of rabbit PRP; assay: Inhibition of collagen induced platelet aggregation of rabbit PRP; assay type: cell-based; conditions: Oryctolagus cuniculus; for inhibition at 2.5 µg/mL: 2.5 μg/ml; for inhibition at 5 µg/mL: 5.0 μg/ml; for inhibition at 10 µg/mL: 10.0 μg/ml; for inhibition at 1 µg/mL: 1.0 μg/ml
Description: (B) Determination of Inhibitory Activity on Collagen Induced Platelet Aggregation:
According to the method of Born et al. [Born, G. V. R.: J. Physiol., 168. 178 (1963)], the platelet aggregation inhibition (%) was determined at various concentrations of compounds by the following procedure:
Rabbit PRP (platelet rich plasma), 0.9 ml, obtained from sodium citrate-added blood, was taken into a polyethylene tube and incubated at 37° C. for 1 minute, and then 10 μl of a compound solution or physiological saline as control, was added.
Subsequently, 0.1 ml of collagen solution was added, and change in absorbance of PRP, resulting from the progress of platelet aggregation, was determined by means of platelet aggregation meter and recorded.
Percent inhibition was calculated according to the following equation: [formula]

Trypsin = target: T1, Trypsin (Bos taurus, UniProt P00760); assay: Inhibitory effect on ester-hydrolyzing activity of trypsin (TAMe substrate); assay type: biochemical; conditions: for inhibition at 1000 µM: read-out: percent inhibition at 10^-3 M (trypsin); for IC50: in vitro, tosylarginine methyl ester hydrolysis, read-out: ID50 (trypsin)
T1 sequence (P00760 24-246): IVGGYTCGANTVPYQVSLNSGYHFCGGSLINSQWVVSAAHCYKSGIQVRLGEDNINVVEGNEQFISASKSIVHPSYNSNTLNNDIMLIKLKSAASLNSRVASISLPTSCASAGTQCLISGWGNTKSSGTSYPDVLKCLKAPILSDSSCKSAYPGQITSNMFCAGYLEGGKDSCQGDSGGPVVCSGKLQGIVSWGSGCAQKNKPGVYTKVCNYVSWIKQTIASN
Description: (A) Determination of Enzyme-inhibitory Activity: The enzyme-inhibitory activities in vitro of the compounds of this invention were measured by the following procedure according to the method of M. Muramatsu et al. [[…]. Makino, Y. Hayashi and S. Fujii: J. […] Then, 10 μmoles of the substrate, TAMe (tosylarginine methyl ester), was added, and incubation was performed at 37° C. for 30 minutes. After the incubation, 1.5 ml of 2 M alkaline hydroxylamine was added and thoroughly mixed, and allowed to stand at room temperature for 15 minutes.

Bovine Thrombin = Bovine Thrombin (Bos taurus, UniProt P00735); assay: Inhibitory effect on ester-hydrolyzing activity of bovine thrombin (TAMe substrate); assay type: biochemical; conditions: for inhibition at 1000 µM: read-out: percent inhibition at 10^-3 M (thrombin)
Description: (4) Inhibitory Effect on Ester-Hydrolyzing Activity of Bovine Thrombin
It was measured by using 0.4 ml of bovine thrombin […], 0.02 M sodium phosphate buffer solution (pH 7.4) and TAMe as substrate following the method described in (1).

Human Plasmin = Human Plasmin (Homo sapiens, UniProt P00747); assay: Inhibitory effect on ester-hydrolyzing activity of human plasmin (TAMe substrate); assay type: biochemical; conditions: read-out: percent inhibition at 10^-3 M (plasmin)
Chain of Human Plasmin (P00747 581-810 limits assumed): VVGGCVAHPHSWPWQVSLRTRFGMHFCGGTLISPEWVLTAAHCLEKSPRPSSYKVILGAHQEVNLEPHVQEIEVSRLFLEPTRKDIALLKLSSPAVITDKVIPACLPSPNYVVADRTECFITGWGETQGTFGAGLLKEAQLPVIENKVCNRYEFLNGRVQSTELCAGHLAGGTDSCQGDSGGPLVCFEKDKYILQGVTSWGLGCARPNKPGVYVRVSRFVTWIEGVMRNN
Chain of Human Plasmin (P00747 97-580 partner limits assumed): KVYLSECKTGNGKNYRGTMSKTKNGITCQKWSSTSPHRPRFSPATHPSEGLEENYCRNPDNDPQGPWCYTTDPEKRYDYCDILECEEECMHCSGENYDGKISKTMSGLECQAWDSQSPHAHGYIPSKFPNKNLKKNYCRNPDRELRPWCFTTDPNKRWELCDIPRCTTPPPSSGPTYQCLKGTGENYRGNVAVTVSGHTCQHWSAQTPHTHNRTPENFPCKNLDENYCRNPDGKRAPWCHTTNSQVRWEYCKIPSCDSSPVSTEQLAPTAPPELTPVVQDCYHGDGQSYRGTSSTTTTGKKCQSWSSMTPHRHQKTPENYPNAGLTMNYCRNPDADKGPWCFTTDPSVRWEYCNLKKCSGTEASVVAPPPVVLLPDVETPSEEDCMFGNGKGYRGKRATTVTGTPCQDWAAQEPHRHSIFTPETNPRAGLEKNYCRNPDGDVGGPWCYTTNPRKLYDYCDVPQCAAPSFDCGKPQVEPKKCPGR
Description: (A) Determination of Enzyme-inhibitory Activity: The enzyme-inhibitory activities in vitro of the compounds of this invention were measured by the following procedure according to the method of M. Muramatsu et al. [[…]. Makino, Y. Hayashi and S. Fujii: J. […] (2) Inhibitory Effect on Ester-hydrolyzing Activity of Human Plasmin It was measured by using 0.1 ml of plasmin (generated by activation of plasminogen with streptokinase) and TAMe as substrate following the method described in (1).

Human Cl Esterase = target: T2, Human Cl Esterase (Homo sapiens, UniProt P09871); assay: Inhibitory effect on ester-hydrolyzing activity of human Cl esterase (ATEe substrate); assay type: biochemical; conditions: for inhibition at 1000 µM: read-out: percent inhibition at 10^-3 M (Cl esterase); for IC50: in vitro, acetyltyrosine ethyl ester hydrolysis, read-out: ID50 (Cl esterase)
T2 sequence (P09871 438-688 limits assumed): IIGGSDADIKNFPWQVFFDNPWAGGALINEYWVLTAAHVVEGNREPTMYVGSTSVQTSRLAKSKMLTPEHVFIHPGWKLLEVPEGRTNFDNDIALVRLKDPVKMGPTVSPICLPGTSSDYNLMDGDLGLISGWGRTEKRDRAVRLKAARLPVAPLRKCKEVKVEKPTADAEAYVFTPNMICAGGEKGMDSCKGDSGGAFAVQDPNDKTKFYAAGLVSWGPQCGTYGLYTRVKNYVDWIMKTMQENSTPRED
T2 sequence (P09871 16-437 partner limits assumed): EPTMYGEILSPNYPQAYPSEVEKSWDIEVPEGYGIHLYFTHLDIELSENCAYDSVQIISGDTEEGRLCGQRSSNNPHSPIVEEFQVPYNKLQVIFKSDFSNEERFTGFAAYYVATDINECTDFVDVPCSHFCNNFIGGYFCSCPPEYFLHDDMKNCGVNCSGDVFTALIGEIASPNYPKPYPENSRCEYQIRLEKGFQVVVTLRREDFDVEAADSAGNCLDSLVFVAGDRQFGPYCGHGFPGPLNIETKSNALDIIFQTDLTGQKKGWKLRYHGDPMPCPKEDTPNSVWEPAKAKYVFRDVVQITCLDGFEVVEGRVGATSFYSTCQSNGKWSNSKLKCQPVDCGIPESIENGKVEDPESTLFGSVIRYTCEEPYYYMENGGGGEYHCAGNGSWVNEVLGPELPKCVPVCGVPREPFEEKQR
Description: It was measured by using 0.1 ml of Cl esterase, 0.1 ml of 0.02 M sodium phosphate buffer solution (pH 7.4) and 10 μmoles of ATEe (acetyltyrosine ethyl ester) as substrate following the method described in (1).

[2] = system: complement-dependent hemolysis of sensitized erythrocytes; assay: Antihemolytic activity (prevention of complement-dependent hemolysis); assay type: cell-based; conditions: Erythrocyte, 10 min; 10^-4 M
Description: (C) Determination of Antihemolytic Activity: Preventions of the complement-dependent hemolysis by the compounds of this invention were measured according to the method of B. R. Baker et al. [J. Med. Chem., 12, 408-414 (1969)] by the following procedure: […] The mixture was incubated at 37° C. for 10 minutes. The reaction was stopped by adding 2.7 ml of an ice-cold citrate-saline solution, and the resulting mixture was centrifuged at 3000 rpm for 3 minutes. Absorbance of the supernatant was measured at 541 nm. As the standard, GVB^2+ (gelatin veronal buffer) was substituted for the sample solution and, as the control, GVB^2+ was substituted for the complement.

Chain of Human Plasma Kallikrein (P03952 391-638 limits assumed): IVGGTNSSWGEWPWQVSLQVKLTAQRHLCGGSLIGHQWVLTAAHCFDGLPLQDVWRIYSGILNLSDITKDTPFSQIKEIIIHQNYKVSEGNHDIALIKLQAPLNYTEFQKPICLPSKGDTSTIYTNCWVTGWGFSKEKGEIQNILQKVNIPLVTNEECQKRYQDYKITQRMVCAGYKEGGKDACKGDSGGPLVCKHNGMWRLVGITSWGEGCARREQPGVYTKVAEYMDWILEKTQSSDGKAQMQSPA
Chain of Human Plasma Kallikrein (P03952 20-390 partner limits assumed): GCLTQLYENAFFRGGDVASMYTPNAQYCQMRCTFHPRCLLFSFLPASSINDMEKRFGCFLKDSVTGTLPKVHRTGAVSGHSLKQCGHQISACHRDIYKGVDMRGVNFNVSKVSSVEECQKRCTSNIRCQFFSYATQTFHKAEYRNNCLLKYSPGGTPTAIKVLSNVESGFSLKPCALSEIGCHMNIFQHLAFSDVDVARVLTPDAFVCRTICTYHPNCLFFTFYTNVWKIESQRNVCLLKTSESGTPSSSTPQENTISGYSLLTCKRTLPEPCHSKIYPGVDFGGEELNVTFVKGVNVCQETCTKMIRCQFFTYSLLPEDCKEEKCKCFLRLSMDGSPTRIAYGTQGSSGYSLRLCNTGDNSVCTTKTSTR

## COc1ccc(OC(=O)CCc2ccc(N)cc2)cc1 [compound 32, p-methoxyphenyl β-(p-aminophenyl)-propionate]
Human Plasma Kallikrein
  inhibition at 1000 µM: < 10%
[1]
  inhibition at 2.5 µg/mL: 41%
  inhibition at 5 µg/mL: 100%
  inhibition at 10 µg/mL: 100%
Trypsin
  inhibition at 1000 µM: 38.8%
Bovine Thrombin
  IC50: 170 µM
Human Plasmin
  inhibition at 1000 µM: < 10%
Human Cl Esterase
  inhibition at 1000 µM: < 10%

## CCCCOc1ccc(OC(=O)CCc2ccc(N)cc2)cc1 [compound 33, p-n-butoxyphenyl β-(p-aminophenyl)-propionate]
Human Plasma Kallikrein
  inhibition at 1000 µM: < 10%
[1]; 0.5 μg/ml
  inhibition at 0.5 µg/mL: 46%
[1]
  inhibition at 1 µg/mL: 100%
  inhibition at 2.5 µg/mL: 100%
  inhibition at 5 µg/mL: 100%
  inhibition at 10 µg/mL: 100%
Trypsin
  IC50: 890 µM
Bovine Thrombin
  inhibition at 1000 µM: 19.9%
Human Plasmin
  inhibition at 1000 µM: < 10%
Human Cl Esterase
  inhibition at 1000 µM: < 10%

## CC(Cc1cccc(NC(=N)N)c1)C(=O)Oc1cccc2ccccc12 (stereo not drawn) [compound 50, 1-naphthyl α-methyl-β-(m-guanidinophenyl)-propionate]
[1]
  inhibition at 1 µg/mL: 4%
  inhibition at 2.5 µg/mL: 100%
  inhibition at 5 µg/mL: 100%
  inhibition at 10 µg/mL: 100%
Trypsin
  IC50: 57 µM
Bovine Thrombin
  inhibition at 1000 µM: < 10%
Human Plasmin
  inhibition at 1000 µM: 42%
Human Cl Esterase
  IC50: 140 µM

## CC(Cc1ccc(NC(=N)N)cc1)C(=O)Oc1cccc2ccccc12 (stereo not drawn) [compound 54, 1-naphthyl α-methyl-β-(p-guanidinophenyl)-propionate]
[2]
  inhibition at 100 µM: 49.3%

## CCCC(Cc1cccc(NC(=N)N)c1)C(=O)Oc1ccccc1 (stereo not drawn) [compound 68, phenyl α-n-propyl-β-(m-guanidinophenyl)-propionate]
Human Plasma Kallikrein
  inhibition at 1000 µM: 17.6%
[2]
  inhibition at 100 µM: 30%
Trypsin
  inhibition at 1000 µM: < 10%
Bovine Thrombin
  inhibition at 1000 µM: < 10%
Human Plasmin
  inhibition at 1000 µM: 22%
Human Cl Esterase
  IC50: 430 µM

## CCCCOc1ccc(OC(=O)CCc2ccc(NC(=N)N)cc2)cc1 [compound 71, p-n-butoxyphenyl β-(p-guanidinophenyl)-propionate]
Human Plasma Kallikrein
  inhibition at 1000 µM: 1.5%
Trypsin
  IC50: 660 µM
Bovine Thrombin
  inhibition at 1000 µM: < 10%
Human Plasmin
  inhibition at 1000 µM: 20%
Human Cl Esterase
  inhibition at 1000 µM: < 10%

## CCOC(=O)c1ccc(OC(=O)C(CC)Cc2ccc(NC(=N)N)cc2)cc1 (stereo not drawn) [compound 76, p-ethoxycarbonylphenylα-ethyl-β-(p-guanidinophenyl)-propionate]
[2]
  inhibition at 100 µM: 33%
